Source: the supplement of paper PMC8253809

Tests used:
SUDIPGXXI [1] = diffuse intrinsic pontine glioma line; assay: EC50 (inflection of fitted growth-inhibition curve) (log10 M)
Procedure, shortened: (§1)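 EC50 and maximal response (yFin) were derived from the lowest-AICc fit, either three- or four-parameter log-logistic. The data were pooled CellTiter-Glo luminescence values, log2-transformed and normalised per plate to % activity between negative (solvent) and positive controls. Patient-derived pHGG/DIPG cell lines and astrocyte controls on 1% Geltrex-coated 384-well plates received a 10-point threefold dilution series (mean top concentration 35 μM) by pin tool, in triplicate, for 7 days (iAstro 3 days) at 37 °C, 5% CO2.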

DIPGX7 [2] = H3.3 K27M diffuse intrinsic pontine glioma line; assay: as above
Procedure, shortened: as §1

DIPGX37 [3] = H3.3 K27M diffuse intrinsic pontine glioma line; assay: as above
Procedure, shortened: as §1

iAstro [4] = astrocyte control; assay: as above
Procedure, shortened: as §1

HABS [5] = astrocyte control; assay: as above
Procedure, shortened: as §1

DIPGX29 [6] = H3.3 K27M diffuse intrinsic pontine glioma line; assay: as above
Procedure, shortened: as §1

SUDIPGXIX [7] = diffuse intrinsic pontine glioma line; assay: as above
Procedure, shortened: as §1

SUDIPGXVII [8] = diffuse intrinsic pontine glioma line; assay: as above
Procedure, shortened: as §1

HGGX2 [9] = paediatric high-grade glioma line; assay: as above
Procedure, shortened: as §1

HGGX6 [10] = H3.3 G34R paediatric high-grade glioma line; assay: as above
Procedure, shortened: as §1

DIPGX9 [11] = diffuse intrinsic pontine glioma line; assay: area under dose-response curve of % growth inhibition (log2 RLU vs DMSO / staurosporine), 1e-11 to 1e-4 M (% x log10 M); higher = more growth inhibition
Procedure, shortened: (§2)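 Cells were exposed in triplicate for 7 days (iAstro: 3 days) at 37 °C, 5% CO2 to a 10-point series of threefold dilutions with a mean top concentration of 35 μM. These were patient-derived pHGG/DIPG lines plus astrocytes, grown on 384-well plates coated with 1% Geltrex. Readout was CellTiter-Glo luminescence, log2-transformed and set per plate to % activity between solvent and positive controls, from which area under the curve was derived by trapezoid rule on a log-logistic fit or, failing that, a smoothing spline.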

HGGX39 [12] = paediatric high-grade glioma line; assay: as above
Procedure, shortened: as §2

SUDIPGXXI [13] = assay: as above
Procedure, shortened: as §2

DIPGX7 [14] = assay: as above
Procedure, shortened: as §2

DIPGX37 [15] = assay: as above
Procedure, shortened: as §2

iAstro [16] = assay: as above
Procedure, shortened: as §2

HABS [17] = assay: as above
Procedure, shortened: as §2

SUDIPGIV [18] = diffuse intrinsic pontine glioma line; assay: as above
Procedure, shortened: as §2

DIPGX29 [19] = assay: as above
Procedure, shortened: as §2

HGGX42 [20] = H3.3 G34R paediatric high-grade glioma line; assay: as above
Procedure, shortened: as §2

SUDIPGXIX [21] = assay: as above
Procedure, shortened: as §2

SUDIPGXVII [22] = assay: as above
Procedure, shortened: as §2

HGGX2 [23] = assay: as above
Procedure, shortened: as §2

HGGX6 [24] = assay: as above
Procedure, shortened: as §2

SUDIPGXIII [25] = diffuse intrinsic pontine glioma line; assay: as above
Procedure, shortened: as §2

SUDIPGVI = diffuse intrinsic pontine glioma line; assay: as above
Procedure, shortened: as §2

SUDIPGXXI [26] = assay: maximal growth inhibition (yFin) relative to DMSO / staurosporine; higher = more efficacious
Procedure, shortened: as §1

DIPGX7 [27] = assay: as above
Procedure, shortened: as §1

DIPGX37 [28] = assay: as above
Procedure, shortened: as §1

iAstro [29] = assay: as above
Procedure, shortened: as §1

HABS [30] = assay: as above
Procedure, shortened: as §1

DIPGX29 [31] = assay: as above
Procedure, shortened: as §1

SUDIPGXIX [32] = assay: as above
Procedure, shortened: as §1

SUDIPGXVII [33] = assay: as above
Procedure, shortened: as §1

HGGX2 [34] = assay: as above
Procedure, shortened: as §1

HGGX6 [35] = assay: as above
Procedure, shortened: as §1

DIPGX9 [36] = assay: EC50 (inflection of fitted growth-inhibition curve) (log10 M)
Procedure, shortened: as §1

HGGX39 [37] = assay: as above
Procedure, shortened: as §1

SUDIPGIV [38] = assay: as above
Procedure, shortened: as §1

HGGX42 [39] = assay: as above
Procedure, shortened: as §1

SUDIPGXIII [40] = assay: as above
Procedure, shortened: as §1

DIPGX9 [41] = assay: maximal growth inhibition (yFin) relative to DMSO / staurosporine; higher = more efficacious
Procedure, shortened: as §1

HGGX39 [42] = assay: as above
Procedure, shortened: as §1

SUDIPGIV [43] = assay: as above
Procedure, shortened: as §1

HGGX42 [44] = assay: as above
Procedure, shortened: as §1

SUDIPGXIII [45] = assay: as above
Procedure, shortened: as §1

CO[C@H]1C[C@@H]2CC[C@@H](C)[C@@](O)(O2)C(=O)C(=O)N2CCCC[C@H]2C(=O)O[C@H]([C@H](C)C[C@@H]2CC[C@@H](OC(=O)C(C)(CO)CO)[C@H](OC)C2)CC(=O)[C@H](C)/C=C(\C)[C@@H](O)[C@@H](OC)C(=O)[C@H](C)C[C@H](C)/C=C/C=C/C=C/1C [TEMSIROLIMUS]
EC50 (log10 M) (SUDIPGXXI [1]): -5.31
EC50 (log10 M) (DIPGX7 [2]): -4.94
EC50 (log10 M) (DIPGX37 [3]): -4.85
EC50 (log10 M) (iAstro [4]): -4.98
EC50 (log10 M) (HABS [5]): -4.85
EC50 (log10 M) (DIPGX29 [6]): -4.69
EC50 (log10 M) (SUDIPGXIX [7]): -4.89
EC50 (log10 M) (SUDIPGXVII [8]): -4.96
EC50 (log10 M) (HGGX2 [9]): -4.9
EC50 (log10 M) (HGGX6 [10]): -4.79
area under dose-response curve (DIPGX9 [11]): 198
area under dose-response curve (HGGX39 [12]): 91.8
area under dose-response curve (SUDIPGXXI [13]): 201
area under dose-response curve (DIPGX7 [14]): 71
area under dose-response curve (DIPGX37 [15]): 123
area under dose-response curve (iAstro [16]): 101
area under dose-response curve (HABS [17]): 88.3
area under dose-response curve (SUDIPGIV [18]): 83.2
area under dose-response curve (DIPGX29 [19]): 113
area under dose-response curve (HGGX42 [20]): 121
area under dose-response curve (SUDIPGXIX [21]): 116
area under dose-response curve (SUDIPGXVII [22]): 40.1
area under dose-response curve (HGGX2 [23]): 86.5
area under dose-response curve (HGGX6 [24]): 77.9
area under dose-response curve (SUDIPGXIII [25]): 53.9
area under dose-response curve (SUDIPGVI): 89
maximal growth inhibition (SUDIPGXXI [26]): 124%
maximal growth inhibition (DIPGX7 [27]): 63.7%
maximal growth inhibition (DIPGX37 [28]): 89.6%
maximal growth inhibition (iAstro [29]): 94.3%
maximal growth inhibition (HABS [30]): 104%
maximal growth inhibition (DIPGX29 [31]): 116%
maximal growth inhibition (SUDIPGXIX [32]): 96.2%
maximal growth inhibition (SUDIPGXVII [33]): 24.2%
maximal growth inhibition (HGGX2 [34]): 77.4%
maximal growth inhibition (HGGX6 [35]): 58%

CC[C@@]1(O)C(=O)OCc2c1cc1n(c2=O)Cc2cc3c(CN(C)C)c(O)ccc3nc2-1 [TOPOTECAN]
EC50 (log10 M) (DIPGX9 [36]): -6.06
EC50 (log10 M) (HGGX39 [37]): -5.44
EC50 (log10 M) (SUDIPGXXI [1]): -8.44
EC50 (log10 M) (DIPGX37 [3]): -4.78
EC50 (log10 M) (iAstro [4]): -7.87
EC50 (log10 M) (HABS [5]): -6.83
EC50 (log10 M) (SUDIPGIV [38]): -7.62
EC50 (log10 M) (HGGX42 [39]): -7.08
EC50 (log10 M) (SUDIPGXIX [7]): -5.74
EC50 (log10 M) (SUDIPGXVII [8]): -6.09
EC50 (log10 M) (SUDIPGXIII [40]): -5.85
area under dose-response curve (DIPGX9 [11]): 287
area under dose-response curve (HGGX39 [12]): 138
area under dose-response curve (SUDIPGXXI [13]): 351
area under dose-response curve (DIPGX7 [14]): 118
area under dose-response curve (DIPGX37 [15]): 150
area under dose-response curve (iAstro [16]): 134
area under dose-response curve (HABS [17]): 204
area under dose-response curve (SUDIPGIV [18]): 317
area under dose-response curve (DIPGX29 [19]): 71
area under dose-response curve (HGGX42 [20]): 119
area under dose-response curve (SUDIPGXIX [21]): 267
area under dose-response curve (SUDIPGXVII [22]): 84.5
area under dose-response curve (HGGX2 [23]): 121
area under dose-response curve (HGGX6 [24]): 75.7
area under dose-response curve (SUDIPGXIII [25]): 60
area under dose-response curve (SUDIPGVI): 71.8
maximal growth inhibition (DIPGX9 [41]): 96.3%
maximal growth inhibition (HGGX39 [42]): 85.3%
maximal growth inhibition (SUDIPGXXI [26]): 79%
maximal growth inhibition (DIPGX37 [28]): 103%
maximal growth inhibition (iAstro [29]): 34.6%
maximal growth inhibition (HABS [30]): 64.3%
maximal growth inhibition (SUDIPGIV [43]): 87.4%
maximal growth inhibition (HGGX42 [44]): 37.5%
maximal growth inhibition (SUDIPGXIX [32]): 98.6%
maximal growth inhibition (SUDIPGXVII [33]): 39%
maximal growth inhibition (SUDIPGXIII [45]): 26%

NC(=O)Nc1sc(-c2ccc(F)cc2)cc1C(N)=O [TPCA-1]
EC50 (log10 M) (DIPGX9 [36]): -4.8
EC50 (log10 M) (HGGX39 [37]): -4.79
EC50 (log10 M) (SUDIPGXXI [1]): -4.81
EC50 (log10 M) (DIPGX37 [3]): -4.8
EC50 (log10 M) (iAstro [4]): -4.76
EC50 (log10 M) (HABS [5]): -4.95
EC50 (log10 M) (SUDIPGIV [38]): -4.55
EC50 (log10 M) (DIPGX29 [6]): -4.75
EC50 (log10 M) (HGGX42 [39]): -5.23
EC50 (log10 M) (SUDIPGXIX [7]): -4.66
EC50 (log10 M) (SUDIPGXVII [8]): -4.74
EC50 (log10 M) (HGGX2 [9]): -4.67
EC50 (log10 M) (HGGX6 [10]): -5.19
area under dose-response curve (DIPGX9 [11]): 29.4
area under dose-response curve (HGGX39 [12]): 21.9
area under dose-response curve (SUDIPGXXI [13]): 99.3
area under dose-response curve (DIPGX7 [14]): 11.3
area under dose-response curve (DIPGX37 [15]): 30.6
area under dose-response curve (iAstro [16]): 18.2
area under dose-response curve (HABS [17]): 32.4
area under dose-response curve (SUDIPGIV [18]): 12
area under dose-response curve (DIPGX29 [19]): 26.8
area under dose-response curve (HGGX42 [20]): 30.8
area under dose-response curve (SUDIPGXIX [21]): 39.2
area under dose-response curve (SUDIPGXVII [22]): 15.2
area under dose-response curve (HGGX2 [23]): 23.3
area under dose-response curve (HGGX6 [24]): 26.9
area under dose-response curve (SUDIPGXIII [25]): 3.37
area under dose-response curve (SUDIPGVI): 6.26
maximal growth inhibition (DIPGX9 [41]): 36.9%
maximal growth inhibition (HGGX39 [42]): 27.7%
maximal growth inhibition (SUDIPGXXI [26]): 122%
maximal growth inhibition (DIPGX37 [28]): 38.5%
maximal growth inhibition (iAstro [29]): 24.4%
maximal growth inhibition (HABS [30]): 33.8%
maximal growth inhibition (SUDIPGIV [43]): 21.9%
maximal growth inhibition (DIPGX29 [31]): 35.9%
maximal growth inhibition (HGGX42 [44]): 24.8%
maximal growth inhibition (SUDIPGXIX [32]): 58.5%
maximal growth inhibition (SUDIPGXVII [33]): 20.7%
maximal growth inhibition (HGGX2 [34]): 36.3%
maximal growth inhibition (HGGX6 [35]): 22.5%
